The text below walks through data of patent US8853394B2, “Pharmacokinetically improved compounds” (Surface Logix, Inc., priority 2006, dated 2014).

pIC50: −log10 of the molar value.

One data set is described as follows: PAMPA permeability. The format is in vitro ADME. To be noted: Hex, read-out: PAMPA Hex. Background: The PAMPA barrier holds no transporters, so it reflects passive diffusion.
The nature of another data set: Caco-2 permeability. The format is in vitro ADME. To be noted: human. An excerpt: Several model systems are available, employing monolayers of various cell types, for evaluation of active transport of pharmaceutically active substances. For example, monolayers of Caco-2 intestinal epithelial cells can be used to evaluate active transport of substances between the intestine and the bloodstream. When plated on a surface which allows the flow of material from apical to basolateral and vice versa, such cells form a biological membrane which can be used to simulate physiological absorption and bioavailability. In another example, mouse brain capillary endothelial cell (MBEC) lines have been established to evaluate active transport in and out of the central nervous system. Another example of such cells is HT29 human colon carcinoma cells. Further, monolayers expressing particular transporter proteins can be established using transfected cells. For example, Sasaki et al (2002) J. Biol. Chem. 8:6497 used a double-transfected Madin-Darby canine kidney cell monolayer to study transport of organic anions.
Background: Caco-2 cells form a polarised layer with tight junctions and transporters.

Another data set concerns PDE-3. As to the kind of experiment: PDE-3 inhibition. The data set is classed as biochemical.
For the next data set, the system named is PDE-4 human. As to the kind of experiment: PDE-4 human inhibition. The format is biochemical.
A further data set is described as follows: Protein Binding. The format is in vitro ADME. To be noted: human, human serum components. How it is done: In general, protein binding is assessed by measuring the capacity of molecules of the invention to bind to one or more human serum components or mimics thereof. In one embodiment, suitable functional residues may be identified by screening of surfaces comprising such residues for their ability to resist adsorption of serum components, including, but not limited to serum proteins, and preferably human serum proteins. Candidate residues can be screened directly by attaching them to a solid support and testing the support for protein resistance. Alternatively, candidate residues are incorporated into, or linked to molecules of pharmaceutical interest. Such compounds may be synthesized on a solid support, or bound to a solid support after synthesis. In a non-limiting example of a direct binding assay, immobilized candidate functional residues or molecules incorporating such residues are tested for their ability to bind serum components. The serum components can be labeled with a signaling moiety for detection, or a labeled secondary reagent that binds to such serum components can be used.
A direct binding analysis can also be preformed in liquid phase. For example, test compounds can be mixed with one or more serum components in liquid phase, and the unbound molecules determined.

For another data set, the system named is PDE-1. Nature of the data set: PDE-1 inhibition. The data set is classed as biochemical.
Data set [1] is described as follows: T1/2 in human liver microsomes. The data set is classed as in vitro ADME.
Another data set deals with PDE5 (Homo sapiens, UniProt O76074). As to the kind of experiment: PDE-5 human inhibition. The format is biochemical.
The next data set can be described thus: Non-Spec Binding. The format is in vitro ADME.
Data set [2] in a line: T1/2 in rat liver microsomes. The format is in vitro ADME. On the technique in general: Microsomes from liver hold many membrane-bound enzymes, among them those of drug oxidation.
The target in another data set is T1, PDE-6 bovine (Bos taurus, UniProt P11541+P23439).
T1 sequence (P11541 2-856 limits assumed): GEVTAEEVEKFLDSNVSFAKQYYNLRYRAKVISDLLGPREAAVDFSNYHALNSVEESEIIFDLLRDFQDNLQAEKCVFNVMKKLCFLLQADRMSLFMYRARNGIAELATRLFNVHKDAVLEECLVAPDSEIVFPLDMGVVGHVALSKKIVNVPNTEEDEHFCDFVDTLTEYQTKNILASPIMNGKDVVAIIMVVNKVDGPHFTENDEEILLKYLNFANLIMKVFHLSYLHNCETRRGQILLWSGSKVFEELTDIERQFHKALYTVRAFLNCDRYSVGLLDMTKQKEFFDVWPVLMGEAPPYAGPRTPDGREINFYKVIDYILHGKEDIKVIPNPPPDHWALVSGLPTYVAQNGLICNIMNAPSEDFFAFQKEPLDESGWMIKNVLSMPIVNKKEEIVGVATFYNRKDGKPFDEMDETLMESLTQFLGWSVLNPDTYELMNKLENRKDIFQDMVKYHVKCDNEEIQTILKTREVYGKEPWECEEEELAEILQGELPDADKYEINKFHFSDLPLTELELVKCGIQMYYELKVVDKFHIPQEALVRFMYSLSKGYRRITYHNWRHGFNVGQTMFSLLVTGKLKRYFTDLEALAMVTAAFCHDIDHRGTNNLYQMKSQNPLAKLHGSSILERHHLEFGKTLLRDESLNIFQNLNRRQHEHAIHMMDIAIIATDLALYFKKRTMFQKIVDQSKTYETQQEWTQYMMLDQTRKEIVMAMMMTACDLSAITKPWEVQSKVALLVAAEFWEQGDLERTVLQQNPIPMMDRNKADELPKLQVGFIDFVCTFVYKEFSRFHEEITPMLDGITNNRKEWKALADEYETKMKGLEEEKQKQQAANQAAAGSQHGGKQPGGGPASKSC
T1 sequence (P23439 2-850 limits assumed): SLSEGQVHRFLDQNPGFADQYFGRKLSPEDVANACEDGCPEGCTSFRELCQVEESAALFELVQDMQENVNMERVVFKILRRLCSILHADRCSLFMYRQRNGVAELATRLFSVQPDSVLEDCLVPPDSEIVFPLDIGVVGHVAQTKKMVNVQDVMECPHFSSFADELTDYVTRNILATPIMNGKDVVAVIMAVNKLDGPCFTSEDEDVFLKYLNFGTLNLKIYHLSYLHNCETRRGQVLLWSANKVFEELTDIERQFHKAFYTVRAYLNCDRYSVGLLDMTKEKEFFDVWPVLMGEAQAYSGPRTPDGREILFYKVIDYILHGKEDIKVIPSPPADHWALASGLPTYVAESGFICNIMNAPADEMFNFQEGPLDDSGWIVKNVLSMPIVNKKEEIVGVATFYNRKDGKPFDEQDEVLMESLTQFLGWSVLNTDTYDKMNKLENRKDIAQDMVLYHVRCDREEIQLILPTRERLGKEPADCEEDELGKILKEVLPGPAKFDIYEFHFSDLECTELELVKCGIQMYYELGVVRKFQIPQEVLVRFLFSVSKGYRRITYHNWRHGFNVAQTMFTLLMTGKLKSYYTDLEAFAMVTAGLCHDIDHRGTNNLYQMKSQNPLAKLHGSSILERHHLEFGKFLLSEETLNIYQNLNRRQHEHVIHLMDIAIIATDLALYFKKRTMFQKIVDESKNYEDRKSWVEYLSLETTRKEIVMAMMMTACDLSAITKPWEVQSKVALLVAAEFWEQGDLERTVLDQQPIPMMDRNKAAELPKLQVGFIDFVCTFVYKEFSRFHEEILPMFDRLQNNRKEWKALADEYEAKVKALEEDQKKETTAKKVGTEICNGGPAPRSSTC
As to the kind of experiment: PDE-6 bovine inhibition. The data set is classed as biochemical.

A short description of data set [3]: Chronic Cytoxicity (mouse 3T3). The format is cell-based. To be noted: 3T3 cells.

Consider `CCCc1nc(C)c2c(=O)[nH]c(-c3cc(S(=O)(=O)N(CC)CCOC)ccc3OCC)nn12` [Compound 9], for which the Papp in the data set “PAMPA permeability” was determined as 133 ×10⁻⁶ cm/s. In the data set “Caco-2 permeability” (AtoB), the apparent permeability from apical to basolateral (Papp A→B) turned out to be 55.1 ×10⁻⁶ cm/s. The Papp B→A in “Caco-2 permeability” (BtoA) turned out to be 60.9 ×10⁻⁶ cm/s. Besides, the pIC50 in the data set on PDE-3 was 6.16; in the data set with PDE-4 human, 5.95; in the data set on PDE-1 it was 7.89; at PDE5 it was 9.95; against PDE-6 bovine it was 9.02. Besides, the fraction unbound in the data set “Protein Binding” came out at 0.01. The results for the half-life in data set [1] and in data set [2] were 9.83 min and 9.8 min, respectively. The “Non-Spec Binding (%)” value in the data set “Non-Spec Binding” is 35.85%. The molecule also showed a GI50 in data set [3] of 87300 nM. In data set [3], this molecule returned an LC50 (50% lethal concentration) greater than 100000 nM.

A word on the Papp A→B: it is how fast a substance crosses the layer from the apical side. One may read the Papp B→A as how fast a substance crosses the layer from the basolateral side. By pIC50 is commonly meant the negative decadic logarithm of the IC50, by convention in mol/L. Read a high pIC50 as a small IC50. A word on the fraction unbound: it is free concentration divided by total concentration. A high value points to much free substance. Usually half-life stands for the time needed for the level to fall by half in the phase considered. A high value points to slow decline. For orientation: GI50 means the concentration giving 50% growth inhibition. Read a high GI50 as less potent growth inhibition.
